Source: ChEMBL document CHEMBL1201862, “PubChem BioAssay data set” (2004)
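Test compounds were applied to cells in 96-well plates for 48 hours at 5 doses. Here, GI50 denotes the concentration required for 50% inhibition of growth.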 Active and inactive are the calls of the source. Cut-off read from the data, not from the text of the source: active = GI50 up to about 1.1 µM and inactive = higher.

Legend:
Test in all cases: inhibition of tumour cell growth, NCI panel, 48 h
HL-60 = test system: HL-60
K562 = test system: K562
SK-MEL-5 = test system: SK-MEL-5
ACHN = test system: ACHN
KM12 = test system: KM12
MDA-N = test system: MDA-N
OVCAR-3 = test system: OVCAR-3
NCI-H226 = test system: NCI-H226
SNB-75 = test system: SNB-75
HCC 2998 = test system: HCC 2998
NCI-H460 = test system: NCI-H460
NCI-H23 = test system: NCI-H23
MDA-MB-231 = test system: MDA-MB-231
A498 = test system: A498
TK-10 = test system: TK-10
SF-268 = test system: SF-268
Malme-3M = test system: Malme-3M

| Structure (SMILES) | GI50 (HL-60) | GI50 (K562) | GI50 (SK-MEL-5) | GI50 (ACHN) | GI50 (KM12) | GI50 (MDA-N) | GI50 (OVCAR-3) | GI50 (NCI-H226) | GI50 (SNB-75) | GI50 (HCC 2998) | GI50 (NCI-H460) | GI50 (NCI-H23) | GI50 (MDA-MB-231) | GI50 (A498) | GI50 (TK-10) | GI50 (SF-268) | GI50 (Malme-3M) |
| --- | --- | --- | --- | --- | --- | --- | --- | --- | --- | --- | --- | --- | --- | --- | --- | --- | --- |
| O=C(Nc1ccccc1)c1cc(S(=O)(=O)n2ccnc2O)c(S)cc1Cl | > 100 µM (inactive) | > 100 µM (inactive) | > 100 µM (inactive) | > 100 µM (inactive) | > 100 µM (inactive) | > 100 µM (inactive) | > 100 µM (inactive) | > 100 µM (inactive) | 28.8 µM (inactive) | > 100 µM (inactive) | > 100 µM (inactive) | > 100 µM (inactive) | > 100 µM (inactive) | > 100 µM (inactive) | > 100 µM (inactive) | > 100 µM (inactive) | – |
| COc1cccc2c1OCC1Cc3ccccc3OC21 (stereo unspecified) | – | 61.1 µM (inactive) | 14.8 µM (inactive) | – | 42.8 µM (inactive) | 25.4 µM (inactive) | 26.5 µM (inactive) | > 100 µM (inactive) | – | 51.6 µM (inactive) | – | 42.4 µM (inactive) | 31 µM (inactive) | 99.1 µM (inactive) | 21.1 µM (inactive) | 60.4 µM (inactive) | 42.4 µM (inactive) |
| CCC(C)C(=O)OC1C(=O)OC2CC3C(C)=CC(=O)C(O)C3(C)C3C4(O)OCC23C1C(C)C4O (stereo unspecified) | – | < 0.01 µM (active) | < 0.0108 µM (active) | < 0.0171 µM (active) | < 0.0107 µM (active) | < 0.0169 µM (active) | < 0.0199 µM (active) | < 0.016 µM (active) | < 0.0204 µM (active) | < 0.0262 µM (active) | < 0.014 µM (active) | < 0.0144 µM (active) | 0.032 µM (active) | 0.514 µM (active) | < 0.0188 µM (active) | < 0.0188 µM (active) | < 0.0104 µM (active) |
| Cc1sc2nc(-c3ccc([N+](=O)[O-])cc3)c(/C=N/N=C(N)N)n2c1C | 1.1 µM (active) | 0.202 µM (active) | 1.38 µM (inactive) | 1.33 µM (inactive) | 0.301 µM (active) | 0.373 µM (active) | 1.75 µM (inactive) | 1.84 µM (inactive) | – | 0.175 µM (active) | 1.75 µM (inactive) | 1.43 µM (inactive) | 0.28 µM (active) | 1.87 µM (inactive) | 1.5 µM (inactive) | 1.65 µM (inactive) | 1.17 µM (inactive) |
| COc1ccc(/C=C2\CCS(=O)(=O)c3ccccc3C2=O)cc1 | 21.5 µM (inactive) | 30.1 µM (inactive) | – | 24.4 µM (inactive) | 16.6 µM (inactive) | 31.4 µM (inactive) | 30 µM (inactive) | 20.2 µM (inactive) | 33.3 µM (inactive) | 20 µM (inactive) | 21.7 µM (inactive) | 25.7 µM (inactive) | 24.6 µM (inactive) | 20.9 µM (inactive) | 23.2 µM (inactive) | 30.3 µM (inactive) | – |
| C[C@@H]1C[C@@H](O)[C@@]2(O)C13CC(=O)OC(C3)[C@@H](C)[C@@]2(C)CO (stereo partly specified) | > 100 µM (inactive) | > 100 µM (inactive) | > 100 µM (inactive) | > 100 µM (inactive) | > 100 µM (inactive) | > 100 µM (inactive) | > 100 µM (inactive) | > 100 µM (inactive) | – | > 100 µM (inactive) | > 100 µM (inactive) | > 100 µM (inactive) | > 100 µM (inactive) | > 100 µM (inactive) | > 100 µM (inactive) | > 100 µM (inactive) | > 100 µM (inactive) |
| O=C(c1ccco1)N(C(=O)N1CCC(c2ccccc2)CC1)c1ccccc1 | 19.3 µM (inactive) | 29 µM (inactive) | 21.6 µM (inactive) | > 100 µM (inactive) | 27.2 µM (inactive) | 42.5 µM (inactive) | 47 µM (inactive) | 31.7 µM (inactive) | 1.95 µM (inactive) | – | – | 45.7 µM (inactive) | > 100 µM (inactive) | 94.8 µM (inactive) | 55.3 µM (inactive) | 99.3 µM (inactive) | > 100 µM (inactive) |
| C=CCN(CCN(CC=C)S(=O)(=O)c1ccc(C)cc1)S(=O)(=O)c1ccc(C)cc1 | – | > 100 µM (inactive) | > 100 µM (inactive) | > 100 µM (inactive) | > 100 µM (inactive) | > 100 µM (inactive) | > 100 µM (inactive) | > 100 µM (inactive) | > 100 µM (inactive) | > 100 µM (inactive) | > 100 µM (inactive) | > 100 µM (inactive) | > 100 µM (inactive) | > 100 µM (inactive) | > 100 µM (inactive) | > 100 µM (inactive) | – |
| COC1=CC(=O)c2c(c(COP(=O)(N(C)CCBr)N(C)CCBr)cn2C)C1=O | < 0.01 µM (active) | 0.0398 µM (active) | 0.0836 µM (active) | < 0.01 µM (active) | 0.219 µM (active) | 0.109 µM (active) | 0.226 µM (active) | – | 0.0826 µM (active) | 0.0373 µM (active) | < 0.01 µM (active) | < 0.0326 µM (active) | 0.296 µM (active) | 0.279 µM (active) | 0.17 µM (active) | 0.0431 µM (active) | 0.0811 µM (active) |
| CCN1C(NN)=NS(=O)(=O)c2ccccc21 | > 100 µM (inactive) | > 100 µM (inactive) | > 100 µM (inactive) | > 100 µM (inactive) | > 100 µM (inactive) | > 100 µM (inactive) | > 100 µM (inactive) | > 100 µM (inactive) | – | > 100 µM (inactive) | > 100 µM (inactive) | > 100 µM (inactive) | > 100 µM (inactive) | > 100 µM (inactive) | > 100 µM (inactive) | > 100 µM (inactive) | – |
| CO[C@]12CC(=O)C3(C(C[C@H]4CC5CC=C6C[C@@H](OC(C)=O)CC[C@]6(OC(C)=O)C5C[C@@]43C)C1)C1C[C@H]3[C@@H]4CC=C5C[C@@H](OC(C)=O)CC[C@]5(OC(C)=O)[C@H]4CC[C@]3(C)C12 (stereo partly specified) | 14.9 µM (inactive) | 8.85 µM (inactive) | 3.53 µM (inactive) | 22.9 µM (inactive) | 11.4 µM (inactive) | 13.1 µM (inactive) | 19.7 µM (inactive) | – | 36.7 µM (inactive) | 17.8 µM (inactive) | 16.3 µM (inactive) | 15.6 µM (inactive) | 14.8 µM (inactive) | 27.2 µM (inactive) | 43.2 µM (inactive) | 56.9 µM (inactive) | 18.5 µM (inactive) |
| O=C(CCO)OCCCCCC/C=C\CCCCCC/C=C\CCCCCCCCOC(=O)CCO | 12.2 µM (inactive) | 15.8 µM (inactive) | > 100 µM (inactive) | 23.9 µM (inactive) | 19.1 µM (inactive) | 17.8 µM (inactive) | 23 µM (inactive) | – | 19.8 µM (inactive) | 16.5 µM (inactive) | 17.3 µM (inactive) | 17.9 µM (inactive) | 18.5 µM (inactive) | 23.3 µM (inactive) | 17.7 µM (inactive) | 18.5 µM (inactive) | 20.5 µM (inactive) |
| COc1cc(C2=C(C#N)C(N)OC3=C2COc2ccccc23)cc(OC)c1OC (stereo unspecified) | > 100 µM (inactive) | 78 µM (inactive) | 25.2 µM (inactive) | 12.6 µM (inactive) | 81.7 µM (inactive) | > 100 µM (inactive) | 14.2 µM (inactive) | 30.4 µM (inactive) | – | 14.4 µM (inactive) | 19.4 µM (inactive) | 33.9 µM (inactive) | 15.2 µM (inactive) | 24.5 µM (inactive) | 13.7 µM (inactive) | 14.9 µM (inactive) | 11.9 µM (inactive) |
